Patent US9110063B2, “Assay methods for the determination of FKBPL expression level in the context of breast cancer” (The Queen's University of Belfast, priority 2009, dated 2015)

Tests used:
MCF7 cells [1] = test: Clonogenic assay, FKBPL-overexpressing MCF7 clones versus parental controls; format: cell-based; conditions: 16 days, colony count
Experimental: Cells were plated at a density of 500 and 1000 cells/well in a 6-well plate containing DMEM+10% FCS and incubated at 37° C. for 24 h. […] In both experiments, colonies were fixed and stained with 0.4% Crystal Violet/70% methanol then counted.

MCF7 cells [2] = test: Clonogenic assay after FKBPL siRNA knockdown versus non-targeting control; format: cell-based; conditions: 16 days, versus non-targeting siRNA controls
Experimental: MCF7 cells were transfected with siControl non-targeting siRNA #1 (Dharmacon, Cat no. D-001210-01-20) or FKBPL targeted siRNA (Ambion, Cat no. 16104). Briefly, 1×10^5 MCF7 cells were seeded into 35 mm dishes and incubated at 37° C. for 24 h. To transfect, in one tube 6.4 μl of either siControl non-targeting siRNA or FKBPL targeted siRNA (2 μM) was added to 160 μl OptiMEM (Invitrogen) and in another tube 4 μl Oligofectamine (Invitrogen, Cat no. 12252-011) was added to 30 μl OptiMEM. Both tubes were incubated at room temperature for 5 min. Both tube contents were mixed and incubated at room temperature for 20 min. During incubation, 800 μl prewarmed complete DMEM was added to the cells then 200 μl transfection mix was added dropwise and the dishes incubated at 37° C. for 72 h. Cells were then plated at a density of 1000 and 2000 cells/well in a 6-well plate containing DMEM+10% FCS and incubated at 37° C. for 24 h. […] In both experiments, colonies were fixed and stained with 0.4% Crystal Violet/70% methanol then counted.

MCF7 parental cells = test: Western blot of FKBPL and ER protein after 17-β-estradiol; format: cell-based; conditions: 10^−8M, 24 h, versus DMSO vehicle
Experimental: To determine whether FKBPL itself could be regulated by oestrogen, 2×10^5 MCF7 parental cells were seeded into 35 mm dishes with phenol red-free DMEM+10% charcoal stripped FCS and incubated at 37° C. for 24 h. The medium was replaced with phenol red-free DMEM+10% charcoal-stripped FCS containing DMSO as vehicle control or 10^−8M 17-β-estradiol (Sigma, Cat no. E2758) and incubated for 24 h. Cells were lysed in 250 μl 2× laemmli buffer (Sigma) and subjected to SDS-PAGE electrophoresis using the XCell Surelock Mini-cell system (Invitrogen), transferred onto nitrocellulose membranes, blocked for 1 h at room temperature with 1% skim milk blocking solution and probed with FKBPL rabbit polyclonal (ProteinTech, Cat no. 10060-1-AP) at a dilution of 1:2000, ER rabbit monoclonal (Millipore, Cat no. 07-662) at a dilution of 1:1000 and GAPDH rabbit monoclonal (Sigma, Cat no. G9545) at a dilution of 1:5000. The blot was then probed with corresponding anti-rabbit IgG HRP-linked whole antibody secondary (GE Healthcare, Cat no. NA934V) or anti-mouse IgG HRP-linked whole antibody secondary (GE Healthcare, Cat no. NA931V) at a dilution of 1:10000. Antibody binding was detected using Supersignal West Pico Chemiluminescent Substrate (Pierce, Cat no. 34080).

[3] = test system: oestrogen receptor positive (ER+) patients; conditions: cited from earlier work

C[C@]12CC[C@@H]3c4ccc(O)cc4C[C@@H](CCCCCCCCC[S+]([O-])CCCC(F)(F)C(F)(F)F)[C@H]3[C@@H]1CC[C@@H]2O (some centres unmarked) [fulvestrant, Fulvestrant]
FKBPL-overexpressing clones more sensitive than parental controls (MCF7 cells [1]; 2.5 nM fulvestrant): up to 99%
Resistance of MCF-7 cells after FKBPL knock-down (MCF7 cells [2]; 2.5 nM fulvestrant): dramatically increased the resistance

C[C@]12CC[C@@H]3c4ccc(O)cc4CC[C@H]3[C@@H]1CC[C@@H]2O [17-β-estradiol]
ER levels (MCF7 parental cells): decrease
FKBPL protein expression (MCF7 parental cells): upregulated

CC/C(=C(\c1ccccc1)c1ccc(OCCN(C)C)cc1)c1ccccc1 [tamoxifen, Tamoxifen]
ER+ patients showing a response ([3]; ER+ breast cancer patients): around 60%
ER+ tumours failing to respond to or developing resistance ([3]; ER+ tumours (non-responder subjects)): up to 40%
FKBPL-overexpressing cells more sensitive than parental controls (MCF7 cells [1]; 1 μM tamoxifen): up to 90%
Resistance of MCF-7 cells after FKBPL knock-down (MCF7 cells [2]; 1 μM tamoxifen): dramatically increased the resistance
